This note sets out measurements from patent US9266876B2 (Actelion Pharmaceuticals Ltd., priority 2012, dated 2016).

One assay concerns the target human CXCR3A (Homo sapiens (Human), UniProt P49682). The experiment in a line: FLIPR assay. Type of assay: cell-based. The conditions noted are these: CHO-K1 cells expressing the human CXCR3A coupled to Galpha(16); CXCL10 agonist 20 nM; Fluo-4-AM fluorescence; mean values if determined several times. The method in brief:
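CHO-K1 cells expressing CXCR3A coupled to Gα16 were loaded with Fluo-4-AM for 1 h in Hepes-buffered HBSS, pH 7.4, with 5 mM probenecid. Compound dilutions were added on the FLIPR, followed by CXCL10 (added as a 20 nM solution). Baseline-subtracted peak fluorescence was fitted to a single-site curve for IC50.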

In another assay the target is CXCR3 (Homo sapiens (Human), UniProt P49682). The experiment in a line: Receptor internalization assay. In kind it is cell-based. Conditions: human whole blood; final CXCL10 concentration 9 nM; 30 min 37° C.; CXCR3 cell surface expression on CD3 positive cells, flow cytometer; read-out: Internalization IC50. On the procedure: B): Receptor Internalization Assay:
Stock solutions of test compounds are made up at a concentration of 10 mM in DMSO, and serially diluted in PBS containing 0.5% BSA to concentrations required for inhibition dose response curves. Diluted compounds are then mixed with an equal volume of CXCL10 (Peprotech) diluted in PBS. Anticoagulated venous human whole blood is added to the mixture, which is then incubated in a CO2 incubator at 37° C. to allow for ligand mediated receptor internalization (final CXCL10 concentration is 9 nM). After 30′, the blood is mixed with fluorescently labeled CXCR3 and CD3 specific antibodies (Becton Dickinson) and incubated on ice for 10 minutes. Samples are then mixed with BD FACS Lysing Solution (Becton Dickinson) in order to eliminate red blood cells. After washing the cells with PBS containing 0.5% BSA, the samples are then analyzed in a flow cytometer (FACS Canto II, Becton Dickinson). For data analysis using FACSDiva software (Becton Dickinson), the mean fluorescence corresponding to CXCR3 cell surface expression was determined on CD3 positive cells. The program GraphPad Prism is used to fit the data to a single site dose response curve and to calculate IC50 values.
(In general: A flow cytometer gives signals particle by particle.)

Chain of human CXCR3A (P49682 whole entry): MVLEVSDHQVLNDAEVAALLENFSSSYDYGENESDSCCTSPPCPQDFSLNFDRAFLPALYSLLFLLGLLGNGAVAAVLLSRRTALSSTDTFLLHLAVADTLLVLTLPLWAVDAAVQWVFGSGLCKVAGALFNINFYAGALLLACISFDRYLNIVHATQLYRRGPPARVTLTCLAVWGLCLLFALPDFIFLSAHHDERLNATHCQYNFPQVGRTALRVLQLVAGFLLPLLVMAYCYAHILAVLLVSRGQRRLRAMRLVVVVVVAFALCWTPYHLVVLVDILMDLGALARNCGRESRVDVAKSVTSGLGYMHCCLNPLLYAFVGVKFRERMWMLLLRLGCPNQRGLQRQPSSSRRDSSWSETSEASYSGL
Chain of CXCR3 (P49682 whole entry): as above

As a reminder, the IC50 is the concentration that gives 50% inhibition. For the molecule `C[C@@H]1CN(c2scnc2-c2nc3ccc(C(C)(C)C)cc3[nH]2)CCN1C(=O)Cn1ccc2cccnc21` [Example 24, 1-{(R)-4-[4-(6-tert-Butyl-1H-benzoimidazol-2-yl)-thiazol-5-yl]-2-methyl-piperazin-1-yl}-2-pyrrolo[2,3-b]pyridin-1-yl-ethanone], the results for the IC50 on human CXCR3A and at CXCR3 were 0.001 µM and 0.215 µM, respectively.
For `C[C@@H]1CN(c2scnc2-c2nc3cc(S(C)(=O)=O)ccc3[nH]2)CCN1C(=O)Cn1ccc2cccnc21` [Example 25, 1-{(R)-4-[4-(5-Methanesulfonyl-1H-benzoimidazol-2-yl)-thiazol-5-yl]-2-methyl-piperazin-1-yl}-2-pyrrolo[2,3-b]pyridin-1-yl-ethanone], the figures for the IC50 at human CXCR3A and on CXCR3 were 0.003 µM and 3.14 µM, respectively.
Take `Cc1cc2[nH]c(-c3ncsc3N3CCN(C(=O)Cn4ccc5cccnc54)[C@H](C)C3)nc2cc1Cl` [Example 27, 1-{(R)-4-[4-(5-Chloro-6-methyl-1H-benzoimidazol-2-yl)-thiazol-5-yl]-2-methyl-piperazin-1-yl}-2-pyrrolo[2,3-b]pyridin-1-yl-ethanone]: the IC50 on human CXCR3A was 0.003 µM; at CXCR3 it was 0.314 µM.
On to `COc1cccc2nc(-c3ncsc3N3CCN(C(=O)Cn4c(=O)n(C)c5ccccc54)CC3)[nH]c12` [Example 30, 1-(2-{4-[4-(7-Methoxy-1H-benzoimidazol-2-yl)-thiazol-5-yl]-piperazin-1-yl}-2-oxo-ethyl)-3-methyl-1,3-dihydro-benzoimidazol-2-one], for which the figures for the IC50 on human CXCR3A and at CXCR3 were 0.002 µM and 0.566 µM, respectively.
Regarding `Cc1ccc2[nH]c(-c3ncsc3N3CCN(C(=O)Cn4c(=O)n(C)c5ccccc54)CC3)nc2c1` [Example 31, 1-Methyl-3-(2-{4-[4-(5-methyl-1H-benzoimidazol-2-yl)-thiazol-5-yl]-piperazin-1-yl}-2-oxo-ethyl)-1,3-dihydro-benzoimidazol-2-one], the figures for the IC50 on human CXCR3A and on CXCR3 were 0.002 µM and 0.54 µM, respectively.
For `Cn1c(=O)n(CC(=O)N2CCN(c3scnc3-c3nc4cc(C(F)(F)F)ccc4[nH]3)CC2)c2ccccc21` [Example 32, 1-Methyl-3-(2-oxo-2-{4-[4-(5-trifluoromethyl-1H-benzoimidazol-2-yl)-thiazol-5-yl]-piperazin-1-yl}-ethyl)-1,3-dihydro-benzoimidazol-2-one], the IC50 amounted to 0.002 µM at human CXCR3A and 0.633 µM at CXCR3.
Regarding `Cn1c(=O)n(CC(=O)N2CCN(c3scnc3-c3nc4cc(Cl)c(Cl)cc4[nH]3)CC2)c2ccccc21` [Example 35, 1-(2-{4-[4-(5,6-Dichloro-1H-benzoimidazol-2-yl)-thiazol-5-yl]-piperazin-1-yl}-2-oxo-ethyl)-3-methyl-1,3-dihydro-benzoimidazol-2-one], the IC50 at human CXCR3A came to 0.003 µM; on CXCR3, 1.51 µM.
In the case of `Cc1c(Cl)ccc2nc(-c3ncsc3N3CCN(C(=O)Cn4c(=O)n(C)c5ccccc54)CC3)[nH]c12` [Example 37, 1-(2-{4-[4-(6-Chloro-7-methyl-1H-benzoimidazol-2-yl)-thiazol-5-yl]-piperazin-1-yl}-2-oxo-ethyl)-3-methyl-1,3-dihydro-benzoimidazol-2-one], the IC50 on human CXCR3A worked out at 0.004 µM; at CXCR3, 1.49 µM.
`O=C(Cn1ccc2cccnc21)N1CCN(c2sc(Br)nc2-c2nc3ccccc3[nH]2)CC1` [Example 38, 1-{4-[4-(1H-Benzoimidazol-2-yl)-2-bromo-thiazol-5-yl]-piperazin-1-yl}-2-pyrrolo[2,3-b]pyridin-1-yl-ethanone]: the values for the IC50 on human CXCR3A and at CXCR3 were 0.003 µM and 1.58 µM, respectively.
Consider `CCc1nc(-c2nc3ccccc3[nH]2)c(N2CCN(C(=O)Cn3ccc4cccnc43)CC2)s1` [Example 39, 1-{4-[4-(1H-Benzoimidazol-2-yl)-2-ethyl-thiazol-5-yl]-piperazin-1-yl}-2-pyrrolo[2,3-b]pyridin-1-yl-ethanone], for which the IC50 on human CXCR3A turned out to be 0.015 µM; on CXCR3, 5.88 µM.
The like results for `O=C(Cn1ccc2cccnc21)N1CCCN(c2scnc2-c2nc3ccccc3[nH]2)CC1` [Example 44, 1-{4-[4-(1H-Benzoimidazol-2-yl)-thiazol-5-yl]-[1,4]diazepan-1-yl}-2-pyrrolo[2,3-b]pyridin-1-yl-ethanone] were, in that order, 0.003 µM and 3.9 µM.
The like results for `CC[C@@H]1CN(c2scnc2-c2nc3ccccc3[nH]2)CCN1C(=O)Cn1cnc2cccnc21` [Example 49, 1-{(R)-4-[4-(1H-Benzoimidazol-2-yl)-thiazol-5-yl]-2-ethyl-piperazin-1-yl}-2-imidazo[4,5-b]pyridin-3-yl-ethanone] were, in that order, 0.004 µM and 0.851 µM.
Regarding `C[C@@H]1CN(c2sc(C(F)(F)F)nc2-c2nc3ccccc3[nH]2)CCN1C(=O)Cn1cnc2cccnc21` [Example 51, 1-{(R)-4-[4-(1H-Benzoimidazol-2-yl)-2-trifluoromethyl-thiazol-5-yl]-2-methyl-piperazin-1-yl}-2-imidazo[4,5-b]pyridin-3-yl-ethanone], the figures for the concentration for half-maximal inhibition (IC50) at human CXCR3A and at CXCR3 were 0.001 µM and 0.066 µM, respectively.
For the molecule `O=C(Cn1ccc2cc(F)ccc21)N1CCN(c2scnc2-c2nc3ccccc3[nH]2)CC1` [Example 55, 1-{4-[4-(1 H-Benzoimidazol-2-yl)-thiazol-5-yl]-piperazin-1-yl}-2-(5-fluoro-indol-1-yl)-ethanone], the figures for the IC50 on human CXCR3A and at CXCR3 were 0.004 µM and 1.66 µM, respectively.
The like results for `Cc1cccc2ccn(CC(=O)N3CCN(c4scnc4-c4nc5ccccc5[nH]4)CC3)c12` [Example 57, 1-{4-[4-(1H-Benzoimidazol-2-yl)-thiazol-5-yl]-piperazin-1-yl}-2-(7-methyl-indol-1-yl)-ethanone] were, in that order, 0.002 µM and 4.13 µM.
For `O=C(Cn1ccc2c(Cl)cccc21)N1CCN(c2scnc2-c2nc3ccccc3[nH]2)CC1` [Example 60, 1-{4-[4-(1H-Benzoimidazol-2-yl)-thiazol-5-yl]-piperazin-1-yl}-2-(4-chloro-indol-1-yl)-ethanone], the IC50 at human CXCR3A is 0.008 µM; on CXCR3, 1.4 µM.
Take `N#Cc1cccc2ccn(CC(=O)N3CCN(c4scnc4-c4nc5ccccc5[nH]4)CC3)c12` [Example 61, 1-(2-{4-[4-(1H-Benzoimidazol-2-yl)-thiazol-5-yl]-piperazin-1-yl}-2-oxo-ethyl)-1H-indole-7-carbonitrile]: the IC50 was 0.002 µM on human CXCR3A and 0.458 µM at CXCR3.
For the molecule `O=C(Cn1ccc2ccc(Cl)nc21)N1CCN(c2scnc2-c2nc3ccccc3[nH]2)CC1` [Example 65, 1-{4-[4-(1H-Benzoimidazol-2-yl)-thiazol-5-yl]-piperazin-1-yl}-2-(6-chloro-pyrrolo[2,3-b]pyridin-1-yl)-ethanone], the IC50 was 0.003 µM on human CXCR3A and 0.816 µM on CXCR3.
In the case of `O=C(CN1C(=O)Cc2ccccc21)N1CCN(c2scnc2-c2nc3ccccc3[nH]2)CC1` [Example 68, 1-(2-{4-[4-(1H-Benzoimidazol-2-yl)-thiazol-5-yl]-piperazin-1-yl}-2-oxo-ethyl)-1,3-dihydro-indol-2-one], the IC50 at human CXCR3A came out at 0.008 µM; on CXCR3, 0.749 µM.
With `O=C(Cn1c(=O)[nH]c2cccnc21)N1CCN(c2scnc2-c2nc3ccccc3[nH]2)CC1` [Example 71, 3-(2-{4-[4-(1H-Benzoimidazol-2-yl)-thiazol-5-yl]-piperazin-1-yl}-2-oxo-ethyl)-1,3-dihydro-imidazo[4,5-b]pyridin-2-one], the 50% inhibitory concentration (IC50) turned out to be 0.006 µM on human CXCR3A and 0.639 µM on CXCR3.
With `C[C@@H]1CN(c2scnc2-c2nc3cc(Cl)ccc3[nH]2)C[C@H](C)N1C(=O)Cn1cnc2cccnc21` [Example 72, 1-{(2S,6R)-4-[4-(5-Chloro-1H-benzoimidazol-2-yl)-thiazol-5-yl]-2,6-dimethyl-piperazin-1-yl}-2-imidazo[4,5-b]pyridin-3-yl-ethanone], the IC50 at human CXCR3A was 0.001 µM; at CXCR3, 0.231 µM.
The like results for `C[C@@H]1CN(c2sc(C3CC3)nc2-c2nc3ccccc3[nH]2)CCN1C(=O)Cn1cnc2cccnc21` [Example 73, 1-{(R)-4-[4-(1H-Benzoimidazol-2-yl)-2-cyclopropyl-thiazol-5-yl]-2-methyl-piperazin-1-yl}-2-imidazo[4,5-b]pyridin-3-yl-ethanone] were, in that order, 0.006 µM and 0.8 µM.
In the case of `Cn1c(=O)n(CC(=O)N2CCN(c3scnc3-c3nc4ccc(OC(F)(F)F)cc4[nH]3)CC2)c2ccccc21` [Example 74, 1-Methyl-3-(2-oxo-2-{4-[4-(6-trifluoromethoxy-1H-benzoimidazol-2-yl)-thiazol-5-yl]-piperazin-1-yl}-ethyl)-1,3-dihydro-benzoimidazol-2-one], the values for the IC50 on human CXCR3A and at CXCR3 were 0.002 µM and 1.04 µM, respectively.
On to `Cn1c(=O)n(CC(=O)N2CCN(c3scnc3-c3nc4cc(C#N)ccc4[nH]3)CC2)c2ccccc21` [Example 75, 2-(5-{4-[2-(3-Methyl-2-oxo-2,3-dihydro-benzoimidazol-1-yl)-acetyl]-piperazin-1-yl}-thiazol-4-yl)-1H-benzoimidazole-5-carbonitrile], for which the IC50 at human CXCR3A stood at 0.015 µM; at CXCR3 it was 0.721 µM.
